Laboratory results taken from patent US4241053A, “Novel nitrosourea compounds and process for preparing the same” (Tanabe Seiyaku Co., Ltd., priority 1978, dated 1980).

Legend:
[1] = Preventive effect against the growth of Ehrlich ascites tumor (Method A); type: in vivo, mice (female ICR); details: mouse, in vivo, ip; maximum dose with 100% inhibition of Ehrlich ascites tumor without causing death; unit from dose column; read-out: MTD (Maximum Tolerated Dose)
Description: (§1) (A) Preventive effect against the growth of Ehrlich ascites tumor:
(§2) 10^6 tumor cells of Ehrlich ascites carcinoma were inoculated intraperitoneally into a group of five femal mice (ICR mice, body weight: 19-23 g). A test compound was dissolved in a physiological saline solution [In the case where CCNU was employed as the test compound, said compound was suspended in a physiological saline solution containing 0.1% NIKKOL HCO-60 (trademark; a surface active agent manufactured by Nikko Chemicals Co. Ltd.)] and administered intraperioneally to the mice. The administration of the test compound was begun 24 hours after the inoculation of the tumor cells and performed once a day for 5 days. The volume of ascites in the treated mice were measured after 7 days of the experiment.
(§3) ^a T = the average volume of ascites in the treated mice
(§4) C = the average volume of ascites in the untreated mice (control group of
(§5) 100% inhibition for the growth of Ehrlich ascites tumor in mice without
(§6) causing the death of said mice)
(§7) 100% inhibition for the growth of said ascites tumor)
(§8) ^e Therapeutic index = MTD/MED
(§9) *the number of mice died/the number of mice used

[2] = test system: Ehrlich ascites carcinoma; test: as above; type: in vivo, mice (female ICR); details: for inhibition in vivo at 0.09 mg/kg: 0.09 mg/kg/day i.p.; for inhibition in vivo at 0.19 mg/kg: 0.19 mg/kg/day i.p.; for inhibition in vivo at 0.39 mg/kg: 0.39 mg/kg/day i.p.; for inhibition in vivo at 0.78 mg/kg: 0.78 mg/kg/day i.p.; for inhibition in vivo at 3.12 mg/kg: 3.12 mg/kg/day i.p.; for inhibition in vivo at 12.5 mg/kg: 12.5 mg/kg/day i.p.; for minimal effective dose: minimum dose with 100% inhibition of ascites tumor, unit from dose column, read-out: MED (Minimum Effective Dose); for inhibition in vivo at 1.56 mg/kg: 1.56 mg/kg/day i.p.; for inhibition in vivo at 200 mg/kg: 200 mg/kg/day i.p.; for inhibition in vivo at 6.25 mg/kg: 6.25 mg/kg/day i.p.; for inhibition in vivo at 25 mg/kg: 25 mg/kg/day i.p.
Description: as §1, §2, §3, §4, §5, §6, §7, §8, §9

[3] = test system: Leukemia L-1210; test: Effect on the life span of mice implanted with leukemic cells of L-1210 (Method B); type: in vivo, mice (male BDF1); details: for ILS at 25 mg/kg / responders at 25 mg/kg: 25 mg/kg/day i.p.
Description: (B) Effect on the life span of mice implanted with leukemic cells of L-1210:
10^5 leukemic cells of L-1210 were inoculated intraperitoneally into a group of four or six male mice (BDF1 mice, body weight: 19-23 g). A test compound was dissolved in a physiological saline solution and administered intraperitoneally to the mice. The administration of the test compound was begun 24 hours after the inoculation of the leukemic cells and performed once a day for 5 days. The survival days of the treated mice were observed.
^a T = the mean survival days of the treated mice
C = the mean survival days of the untreated mice (control group of mice)
^b ILS(Increase in Life Span) =-
^c 60day survivors = the number of mice survived for 60 days/the

[4] = 100 mg/kg/day i.p., once a day for 5 days
[5] = Mus musculus, Ehrlich, ip, 168 h, once a day for 5 days, read-out: Inhibition ratio
[6] = Mus musculus, Ehrlich, ip, 168 h, 50 mg/kg/day i.p., once a day for 5 days, read-out: Inhibition ratio
[7] = Mus musculus, Ehrlich, ip, 168 h
[8] = Mus musculus, L1210, ip, 120 h, 6.25 mg/kg/day i.p., once a day for 5 days, read-out: ILS (Increase in Life Span)
[9] = Mus musculus, L1210, ip, 120 h, once a day for 5 days, read-out: ILS (Increase in Life Span)
[10] = Mus musculus, L1210, ip, 1440 h, once a day for 5 days, read-out: 60-day survivors (mice survived for 60 days/mice used) (converted)
[11] = 400 mg/kg/day i.p., once a day for 5 days

SMILES	MTD at 168 h [1] [mg/kg/day]	Toxic (number of mice died/number of mice used) [2, 4]	Therapeutic index (MTD/MED) [2]	inhibition in vivo at 0.09 mg/kg [2, 5] [%]	inhibition in vivo at 0.19 mg/kg [2, 5] [%]	inhibition in vivo at 0.39 mg/kg [2, 5] [%]	inhibition in vivo at 0.78 mg/kg [2, 5] [%]	inhibition in vivo at 3.12 mg/kg [2, 5] [%]	inhibition in vivo at 12.5 mg/kg [2, 5] [%]	inhibition in vivo at 50 mg/kg [2, 6] [%]	minimal effective dose [2, 7] [mg/kg/day]	ILS at 6.25 mg/kg [3, 8] [%]	ILS at 25 mg/kg [3, 9] [%]	responders at 25 mg/kg [3, 10] [%]	Toxic (number of mice died/number of mice used) [2, 11]	inhibition in vivo at 1.56 mg/kg [2, 5] [%]	inhibition in vivo at 200 mg/kg [2, 5] [%]	inhibition in vivo at 6.25 mg/kg [2, 5] [%]	inhibition in vivo at 25 mg/kg [2, 5] [%]	other results
COCC(C)N(C(=O)N(CCCl)N=O)C1OC[C@H](O)[C@H](O)[C@H]1O (stereo partly drawn) [Compound 6, 1-(2-chloroethyl)-1-nitroso-3-(1-methyl-2-methoxy-ethyl)-3-(L-arabinopyranosyl)urea]	50	5/5	64	15.8	63.2	92.1	100	100	100	100	0.78	> 270	> 722	100	–	–	–	–	–	ILS at 1.56 mg/kg ([3]; Mus musculus, L1210, ip, 120 h, 1.56 mg/kg/day i.p., once a day for 5 days, read-out: ILS (Increase in Life Span)): 57.5%; ILS at 12.5 mg/kg ([3]; Mus musculus, L1210, ip, 120 h, 12.5 mg/kg/day i.p., once a day for 5 days, read-out: ILS (Increase in Life Span)): > 722%; responders at 1.56 mg/kg ([3]; Mus musculus, L1210, ip, 1440 h, 1.56 mg/kg/day i.p., once a day for 5 days, read-out: 60-day survivors (mice survived for 60 days/mice used)): 0%; responders at 12.5 mg/kg ([3]; Mus musculus, L1210, ip, 1440 h, 12.5 mg/kg/day i.p., once a day for 5 days, read-out: 60-day survivors (mice survived for 60 days/mice used) (converted)): 100%; increase in the average life span ([3]; daily dose 0.45 mg/kg i.p., five consecutive days): about 30%
COCC(C)N(C(=O)N(CCCl)N=O)C1O[C@H](CO)[C@@H](O[C@H]2O[C@H](CO)[C@@H](O)[C@H](O)[C@H]2O)[C@H](O)[C@H]1O (stereo partly drawn) [Compound 2, 1-(2-chloroethyl)-1-nitroso-3-(1-methyl-2-methoxy-ethyl)-3-[O-α-D-glucopyranosyl-(1→4)-D-glucopyranosyl]urea]	200	–	128	–	–	–	-8.6	100	100	100	1.56	85.7	> 604	75	2/5	100	100	–	–	therapeutic index (M.T.D./M.E.D.) relative to that of GANU ([2]; Ehrlich ascites tumor, greater than that of GANU): 4 times; ILS at 50 mg/kg ([3]; Mus musculus, L1210, ip, 120 h, 50 mg/kg/day i.p., once a day for 5 days, read-out: ILS (Increase in Life Span)): > 757%; ILS at 100 mg/kg ([3]; Mus musculus, L1210, ip, 120 h, 100 mg/kg/day i.p., once a day for 5 days, read-out: ILS (Increase in Life Span)): > 757%; responders at 6.25 mg/kg ([3]; Mus musculus, L1210, ip, 1440 h, 6.25 mg/kg/day i.p., once a day for 5 days, read-out: 60-day survivors (mice survived for 60 days/mice used) (converted)): 0%; responders at 50 mg/kg ([3]; Mus musculus, L1210, ip, 1440 h, 50 mg/kg/day i.p., once a day for 5 days, read-out: 60-day survivors (mice survived for 60 days/mice used) (converted)): 100%; responders at 100 mg/kg ([3]; Mus musculus, L1210, ip, 1440 h, 100 mg/kg/day i.p., once a day for 5 days, read-out: 60-day survivors (mice survived for 60 days/mice used) (converted)): 100%
O=NN(CCCl)C(=O)NC1CCCCC1 [CCNU, 1-(2-chloroethyl)-1-nitroso-3-cyclohexylurea, reference compound]	50	5/5	–	–	–	–	–	21.1	100	100	–	–	–	–	–	–	–	33.3	–	–
COCCN(C(=O)N(CCCl)N=O)C1O[C@H](CO)[C@@H](O)[C@H](O)[C@@H]1O (stereo partly drawn) [Compound 11, 1-(2-chloroethyl)-1-nitroso-3-(2-methoxyethyl)-3-(D-mannopyranosyl)urea]	400	–	64	–	–	–	–	64	–	–	6.25	–	–	–	–	14	–	100	100	Toxic (number of mice died/number of mice used) ([2]; 800 mg/kg/day i.p., once a day for 5 days): 5/5; inhibition in vivo at 100 mg/kg ([2]; Mus musculus, Ehrlich, ip, 168 h, 100 mg/kg/day i.p., once a day for 5 days, read-out: Inhibition ratio): 100%; inhibition in vivo at 400 mg/kg ([2]; Mus musculus, Ehrlich, ip, 168 h, 400 mg/kg/day i.p., once a day for 5 days, read-out: Inhibition ratio): 100%
COC(C)CN(C(=O)N(CCCl)N=O)C1O[C@H](CO)[C@@H](O[C@H]2O[C@H](CO)[C@@H](O)[C@H](O)[C@H]2O)[C@H](O)[C@H]1O (stereo partly drawn) [Compound 1, 1-(2-chloroethyl)-1-nitroso-3-(2-methoxy-n-propyl)-3-[O-α-D-glucopyranosyl-(1→4)-D-glucopyranosyl]urea]	200	–	64	–	–	–	–	100	100	100	3.12	–	–	–	4/5	4.4	100	–	–	–
COCCN(C(=O)N(CCCl)N=O)C1OC[C@@H](O)[C@H](O)[C@H]1O (stereo partly drawn) [Compound 10, 1-(2-chloroethyl)-1-nitroso-3-(2-methoxyethyl)-3-(D-xylopyranosyl)urea]	25	–	64	25	89.6	100	–	–	–	–	0.39	–	–	–	–	100	–	–	100	Toxic (number of mice died/number of mice used) ([2]; 50 mg/kg/day i.p., once a day for 5 days): 2/5; inhibition in vivo at 0.04 mg/kg ([2]; Mus musculus, Ehrlich, ip, 168 h, 0.04 mg/kg/day i.p., once a day for 5 days, read-out: Inhibition ratio): 2.1%; inhibition in vivo at 6.23 mg/kg ([2]; Mus musculus, Ehrlich, ip, 168 h, 6.23 mg/kg/day i.p., once a day for 5 days, read-out: Inhibition ratio): 100%
